Reference: paper PMC10999543, “Identification of kinase modulators as host-directed therapeutics against intracellular methicillin-resistant Staphylococcus aureus” (Frontiers in Cellular and Infection Microbiology, 2024)
Where two headings read alike, the source gives them in different places.

Assays:
[1] = system: intracellular MRSA; assay type: cell-based, Staphylococcus aureus; details: for z-scoreMRSA+ mean: mean of 3 replicates; for z-scoreMRSA+ rep 1 / %GFP+ rep 1: replicate 1; for z-scoreMRSA+ rep 2 / %GFP+ rep 2: replicate 2; for z-scoreMRSA+ rep 3 / %GFP+ rep 3: replicate 3
Procedure: (§1) The cells were resuspended in cell culture medium without antibiotics, seeded with 10,000 cells/well into Costar flat-bottom 96-well plates (Corning, Amsterdam, the Netherlands), and were incubated overnight at 37°C/5% CO2. The next day, the bacteria were centrifuged at ≥1800 g for 15 min and resuspended in cold PBS + 5 mM ethylenediaminetetraacetic acid (EDTA). The number of CFUs present in the bacterial suspension was estimated from the optical density at 600 nm (OD600) by assuming 8x10^8 CFUs to be present in a bacterial suspension with OD600 = 1, based on prior titrations. The bacterial suspension was diluted in cell culture medium without antibiotics and added to the cells. Accuracy of the multiplicity of infection (MOI) was validated by plating serial dilutions of the MRSA inoculums on Difco TS agar plates (BD Biosciences). The calculated mean MOI throughout all experiments was 6.8 ± 4.6 (mean ± SD). Infected cells were centrifuged for 3 min at 150 g and incubated for 1 hour at 37°C/5% CO2. Next, the cells were incubated with fresh cell culture medium supplemented with 30 µg/ml gentamicin sulphate (Lonza BioWhittaker, Basel, Switzerland) for 15 min at 37°C/5% CO2 to kill residual extracellular bacteria. Infected cells were incubated overnight at 37°C/5% CO2 in cell culture medium in the presence of kinase inhibitors and 5 µg/ml gentamicin sulphate-containing medium to prevent the growth of extracellular bacteria. The solvent of the compounds, DMSO, was used at equal % v/v as a negative control. For the screen, each compound was tested in triplicate, on separate cell culture plates, resulting in triplicate values for each kinase inhibitor.
(§2) HeLa cells were harvested by trypsinization and fixed with 1% paraformaldehyde. Samples were measured on a FACSLyric with HTS extension (BD Biosciences). Flow cytometry data were analysed using FlowJo version 10 (TreeStar, Ashland, OR, USA). HeLa cells positive for GFP were gated to calculate the percentage of MRSA-infected cells. The cell count was used as surrogate readout of cell viability.
To identify potential “hit” compounds, the flow cytometry data were used to calculate standard z-scores using z = (x-μ)/σ – zneg, where x is total event count or the percent of GFP-positive cells from a single well, μ is the mean from wells of the plate, σ is the standard deviation of the plate and zneg is the mean z-score of the negative control of the plate (i.e., DMSO) ([Korbee et al., 2018]). To minimize the possibility that the presence of extreme values on a plate affected the z-scores, raw values that deviated two-fold from the negative controls were excluded when calculating plate means and standard deviations as used in the aforementioned formula. Compounds were considered a “hit” when z-scoreMRSA+ ≤ -2 and z-scoreHeLa ≥ -3 for cell count. In cases where compounds were screened twice, the average values were used to select hit compounds.

[2] = system: HeLa cells; assay: Compound screen by flow cytometry: HeLa cell count as surrogate readout of cell viability (z-scoreHeLa); assay type: cell-based, human
Procedure: as §1, §2
To minimize the possibility that the presence of extreme values on a plate affected the z-scores, raw values that deviated two-fold from the negative controls were excluded when calculating plate means and standard deviations as used in the aforementioned formula. Compounds were considered a “hit” when z-scoreMRSA+ ≤ -2 and z-scoreHeLa ≥ -3 for cell count. In cases where compounds were screened twice, the average values were used to select hit compounds.

[3] = PKIS compound screen, Yes/No call
[4] = PKIS compound screen, Yes/No call (effect without cell death)
[5] = PKIS compounds raw data, MRSA-infected HeLa cells
[6] = PKIS compound screen, mean of 3 replicates
[7] = PKIS compound screen, replicate 1
[8] = PKIS compound screen, replicate 2
[9] = PKIS compound screen, replicate 3
[10] = PKIS compounds raw data, replicate 1, HeLa cell count
[11] = PKIS compounds raw data, replicate 2, HeLa cell count
[12] = PKIS compounds raw data, replicate 3, HeLa cell count
[13] = PKIS compound screen raw data, MRSA-infected HeLa cells
[14] = PKIS compound screen, MRSA-infected HeLa cells
[15] = PKIS compound screen, Yes/No call on z-scoreMRSA+
[16] = PKIS compound screen raw data, HeLa cell count, replicate 1
[17] = PKIS compound screen raw data, HeLa cell count, replicate 2
[18] = PKIS compound screen raw data, HeLa cell count, replicate 3
[19] = Yes/No: effect without cell death
[20] = compound screen, MRSA-infected HeLa cells
[21] = compound screen, HeLa cell count, mean of 3 replicates
[22] = compound screen, HeLa cell count, replicate 1
[23] = compound screen, HeLa cell count, replicate 2
[24] = compound screen, HeLa cell count, replicate 3

Cn1cc(-c2ccc3c(c2)CCN3C(=O)Cc2cccc(F)c2)c2c(N)ncnc21 [GSK2603358A]
effect [1, 3]: No | hit [1, 4]: No | z-scoreMRSA+ mean ([1]; PKIS compound screen): 0.42 | z-scoreMRSA+ rep 1 ([1]; PKIS compound screen): -0.03 | z-scoreMRSA+ rep 2 ([1]; PKIS compound screen): 0.66 | z-scoreMRSA+ rep 3 ([1]; PKIS compound screen): 0.62 | %GFP+ rep 1 [1, 5]: 26.9% | %GFP+ rep 2 [1, 5]: 29.5% | %GFP+ rep 3 [1, 5]: 30.6% | cell death [2, 3]: No | z-scoreHeLa mean [2, 6]: 0.76 | z-scoreHeLa rep 1 [2, 7]: -0.12 | z-scoreHeLa rep 2 [2, 8]: 0.60 | z-scoreHeLa rep 3 [2, 9]: 1.79 | cell count rep 1 [2, 10]: 5847 | cell count rep 2 [2, 11]: 6919 | cell count rep 3 [2, 12]: 8427

O=C(Nc1n[nH]c2nc(-c3ccccc3)c(Br)cc12)C1CC1 [SB-708998]
%GFP+ rep 1 [1, 13]: 14.4% | %GFP+ rep 2 [1, 13]: 13.9% | %GFP+ rep 3 [1, 13]: 15.7% | z-scoreMRSA+ mean [1, 14]: -1.40 | z-scoreMRSA+ rep 1 [1, 14]: -1.17 | z-scoreMRSA+ rep 2 [1, 14]: -1.50 | z-scoreMRSA+ rep 3 [1, 14]: -1.51 | effect [1, 3]: No | hit [1, 4]: No | effect [1, 15]: No | z-scoreMRSA+ mean ([1]; PKIS compound screen): 0.31 | z-scoreMRSA+ rep 1 ([1]; PKIS compound screen): 0.75 | z-scoreMRSA+ rep 2 ([1]; PKIS compound screen): -0.18 | z-scoreMRSA+ rep 3 ([1]; PKIS compound screen): 0.38 | %GFP+ rep 1 [1, 5]: 30.9% | %GFP+ rep 2 [1, 5]: 25.1% | %GFP+ rep 3 [1, 5]: 29.3% | cell count rep 1 [2, 16]: 29154 | cell count rep 2 [2, 17]: 28936 | cell count rep 3 [2, 18]: 20350 | z-scoreHeLa mean ([2]; PKIS compound screen, HeLa cell count, mean of 3 replicates): 0.24 | z-scoreHeLa rep 1 ([2]; PKIS compound screen, HeLa cell count, replicate 1): -0.18 | z-scoreHeLa rep 2 ([2]; PKIS compound screen, HeLa cell count, replicate 2): 0.63 | z-scoreHeLa rep 3 ([2]; PKIS compound screen, HeLa cell count, replicate 3): 0.28 | cell death [2, 3]: No | cell death ([2]; PKIS compound screen, Yes/No call on z-scoreHeLa): No | z-scoreHeLa mean [2, 6]: 0.29 | z-scoreHeLa rep 1 [2, 7]: -0.0543 | z-scoreHeLa rep 2 [2, 8]: 0.46 | z-scoreHeLa rep 3 [2, 9]: 0.46 | cell count rep 1 [2, 10]: 5956 | cell count rep 2 [2, 11]: 6708 | cell count rep 3 [2, 12]: 6327

Cc1c2ccc(N(C)c3ccnc(Nc4cccc(S(N)(=O)=O)c4)n3)cc2nn1Cc1ccccc1 [GW787226A]
%GFP+ rep 1 [1, 13]: 21.6% | %GFP+ rep 2 [1, 13]: 20.6% | %GFP+ rep 3 [1, 13]: 18.5% | effect ([1]; Yes/No call from z-scoreMRSA+): No | hit [1, 19]: No | z-scoreMRSA+ mean [1, 20]: -0.82 | z-scoreMRSA+ rep 1 [1, 20]: -0.86 | z-scoreMRSA+ rep 2 [1, 20]: -0.49 | z-scoreMRSA+ rep 3 [1, 20]: -1.11 | cell count rep 1 [2, 16]: 1356 | cell count rep 2 [2, 17]: 1496 | cell count rep 3 [2, 18]: 1271 | cell death ([2]; Yes/No call from z-scoreHeLa): No | z-scoreHeLa mean [2, 21]: -2.28 | z-scoreHeLa rep 1 [2, 22]: -2.16 | z-scoreHeLa rep 2 [2, 23]: -2.16 | z-scoreHeLa rep 3 [2, 24]: -2.51

O=S(=O)(c1cccc(F)c1)c1ccc(Nc2ncnc3cc(Br)sc23)cc1Cl [GSK306886A]
%GFP+ rep 1 [1, 5]: 13.2% | %GFP+ rep 2 [1, 5]: 13.8% | %GFP+ rep 3 [1, 5]: 13.0% | effect ([1]; Yes/No call from z-scoreMRSA+): No | hit [1, 19]: No | z-scoreMRSA+ mean [1, 20]: -0.25 | z-scoreMRSA+ rep 1 [1, 20]: 0.00934 | z-scoreMRSA+ rep 2 [1, 20]: 0.10 | z-scoreMRSA+ rep 3 [1, 20]: -0.85 | cell count rep 1 [2, 10]: 2697 | cell count rep 2 [2, 11]: 1761 | cell count rep 3 [2, 12]: 5093 | cell death ([2]; Yes/No call from z-scoreHeLa): No | z-scoreHeLa mean [2, 21]: -1.56 | z-scoreHeLa rep 1 [2, 22]: -1.88 | z-scoreHeLa rep 2 [2, 23]: -1.89 | z-scoreHeLa rep 3 [2, 24]: -0.89

CN(C)S(=O)(=O)c1cc(-c2ccc3nccc(-c4cccc(S(N)(=O)=O)c4)c3c2)cnc1N [GSK1669921A]
effect [1, 3]: No | hit [1, 4]: No | z-scoreMRSA+ mean ([1]; PKIS compound screen): -1.31 | z-scoreMRSA+ rep 1 ([1]; PKIS compound screen): -1.39 | z-scoreMRSA+ rep 2 ([1]; PKIS compound screen): -1.10 | z-scoreMRSA+ rep 3 ([1]; PKIS compound screen): -1.42 | %GFP+ rep 1 [1, 5]: 19.9% | %GFP+ rep 2 [1, 5]: 20.3% | %GFP+ rep 3 [1, 5]: 19.6% | cell death [2, 3]: No | z-scoreHeLa mean [2, 6]: -1.20 | z-scoreHeLa rep 1 [2, 7]: -1.09 | z-scoreHeLa rep 2 [2, 8]: -1.39 | z-scoreHeLa rep 3 [2, 9]: -1.10 | cell count rep 1 [2, 10]: 4231 | cell count rep 2 [2, 11]: 3906 | cell count rep 3 [2, 12]: 3857

Cc1ccc(C)c(Oc2nccc(-c3c(-c4ccc(F)cc4)ncn3C3CCNCC3)n2)c1 [SB-284852-BT]
cell count rep 1 [2]: 26025 | cell count rep 2 [2]: 26957 | cell count rep 3 [2]: 22542 | cell death [2]: No | z-scoreHeLa mean [2]: 0.10 | z-scoreHeLa rep 1 [2]: -0.71 | z-scoreHeLa rep 2 [2]: 0.29 | z-scoreHeLa rep 3 [2]: 0.70

Cc1cnc(N)c(/C=C/c2cncc(C(=O)NCCc3ccc(Cl)cc3Cl)c2)c1 [GSK190937A]
%GFP+ rep 1 [1, 13]: 17.3% | %GFP+ rep 2 [1, 13]: 19.0% | %GFP+ rep 3 [1, 13]: 19.5% | z-scoreMRSA+ mean [1, 14]: -0.04 | z-scoreMRSA+ rep 1 [1, 14]: -0.18 | z-scoreMRSA+ rep 2 [1, 14]: 0.14 | z-scoreMRSA+ rep 3 [1, 14]: -0.09 | hit [1, 4]: No | effect [1, 15]: No

Fc1ccc(-c2ncn(C3CCNCC3)c2-c2ccnc(Oc3cccc(F)c3)n2)cc1 [SB-251505]
%GFP+ rep 1 [1, 13]: 15.0% | %GFP+ rep 2 [1, 13]: 15.3% | %GFP+ rep 3 [1, 13]: 16.6% | z-scoreMRSA+ mean [1, 14]: -0.95 | z-scoreMRSA+ rep 1 [1, 14]: -0.91 | z-scoreMRSA+ rep 2 [1, 14]: -0.97 | z-scoreMRSA+ rep 3 [1, 14]: -0.97 | hit [1, 4]: No | effect [1, 15]: No

Fc1ccc(-c2ncn(C3CCNCC3)c2-c2ccnc(Oc3ccc(Cl)cc3)n2)cc1 [SB-278539]
%GFP+ rep 1 [1, 13]: 13.4% | %GFP+ rep 2 [1, 13]: 15.5% | %GFP+ rep 3 [1, 13]: 16.2% | z-scoreMRSA+ mean [1, 14]: -1.14 | z-scoreMRSA+ rep 1 [1, 14]: -1.41 | z-scoreMRSA+ rep 2 [1, 14]: -0.91 | z-scoreMRSA+ rep 3 [1, 14]: -1.09 | hit [1, 4]: No | effect [1, 15]: No

COc1ccccc1C1=C(Nc2ccc(O)c(Cl)c2)C(=O)NC1=O [SB-381904]
%GFP+ rep 1 [1, 13]: 16.9% | %GFP+ rep 2 [1, 13]: 18.3% | %GFP+ rep 3 [1, 13]: 18.4% | z-scoreMRSA+ mean [1, 14]: -0.26 | z-scoreMRSA+ rep 1 [1, 14]: -0.30 | z-scoreMRSA+ rep 2 [1, 14]: -0.07 | z-scoreMRSA+ rep 3 [1, 14]: -0.42 | hit [1, 4]: No | effect [1, 15]: No

Fc1ccc(-c2ncn(C3CCNCC3)c2-c2ccnc(Oc3cccc(C(F)(F)F)c3)n2)cc1 [SB-253226]
%GFP+ rep 1 [1, 13]: 14.0% | %GFP+ rep 2 [1, 13]: 15.8% | %GFP+ rep 3 [1, 13]: 16.0% | z-scoreMRSA+ mean [1, 14]: -1.07 | z-scoreMRSA+ rep 1 [1, 14]: -1.22 | z-scoreMRSA+ rep 2 [1, 14]: -0.82 | z-scoreMRSA+ rep 3 [1, 14]: -1.15 | hit [1, 4]: No | effect [1, 15]: No

Cc1cc(C)cc(Oc2nccc(-c3c(-c4ccc(F)cc4)ncn3C3CCNCC3)n2)c1 [SB-284851-BT]
cell count rep 1 [2]: 26737 | cell count rep 2 [2]: 41520 | cell count rep 3 [2]: 48762 | cell death [2]: No | z-scoreHeLa mean [2]: 1.19 | z-scoreHeLa rep 1 [2]: 1.00 | z-scoreHeLa rep 2 [2]: 1.26 | z-scoreHeLa rep 3 [2]: 1.31
